Measured values from paper PMC4467398, “Preclinical antitumor activity of ST7612AA1: a new oral thiol-based histone deacetylase (HDAC) inhibitor” (Oncotarget, 2014).
“Also recorded” adds a separate entry of the source.

Assays:
[1] = PK sampling and analysis after a single oral dose of ST7612AA1 (plasma, LC-MS/MS); type: in vivo, CD1 mice; settings: single oral dose of 120 mg/kg; limit of quantification 25 ng/mL
Description: CD1 nude mice were used. Male mice were treated with a single dose of ST7612AA1 at 120 mg/10 mL/kg p.o., using 5% Solutol HS 15 in water for injection as vehicle. Blood samples were collected at 0.25, 0.5, 1, 2, 4 and 6 h post treatment from 5 animals per time point. Levels of ST7612AA1 and ST7464AA1 were determined in plasma by quantitative LC-MS/MS having a limit of quantification of 25 ng/mL. The PK parameters Cmax (maximum plasma concentration), Tmax (time of maximum plasma concentration), Clast (last quantifiable concentration), Tlast (time of last quantifiable plasma concentration), AUClast (area under the concentration vs time curve from 0 to Tlast), AUCINF (area under the concentration vs time curve from 0 to infinity), T1/2 (terminal half-life), CL/F (apparent systemic clearance) and Vz/F (apparent terminal volume of distribution) were derived from the analyte plasma concentration vs time data according to a model independent approach for sparse data sampling by using Phoenix WinNonlin® ver. 6.3 software (Pharsight, Cetara).

GCB-DLBCL model DOHH2 = test: In vivo lymphoma xenograft model; design: species or system NOD-SCID mice; settings: po at days 12, 13, 15, 16, 18, 19 after tumor injection; vs control mice
Description: The in vivo experiment with lymphoma model was performed in the IOR laboratory according to study protocols approved by the local Cantonal Veterinary Authority (No. 5/2011). At day 1, tumors were established by injecting DOHH2 lymphoma cells (200 μL of PBS, 8×10^6 cells/mouse) into the left flanks of 5-weeks old female NOD-SCID mice (Harlan Laboratories). Tumor size was measured on regular basis and until tumors reached around […] in diameter (day 12). Then, treatments were conducted at day 12, 13, 15, 16, 18, 19. Tumors were measured at 12, 14, 17, 21, 25 days. Tumor volumes were calculated as described above. Mice were sacrificed when physical conditions became critical or when tumors reached a weight of about 0.5 gr. For comparison between a control and a treatment group, an unpaired Mann-Whitney's test was used. A P-value <0.05 was considered significant.

lymphoma cell lines = test: Detection of apoptotic cells (Annexin V-FITC, flow cytometry); type: cell-based, human; settings: 250 nM, 72 hrs; eight lymphoma cell lines
Description: Apoptosis was assessed, on cells treated with DMSO or different doses of ST7612AA1, by Annexin V-FITC apoptosis detection kit (BD Biosciences), according to the manufacturer's recommendations, on a FACScan flow cytometer (BD Biosciences).

GCB-DLBCL VAL = test: In vitro proliferation assay (MTT); type: cell-based; settings: Homo sapiens, 72 h, mean ± S.E.M.
Description: (§1) Anti-proliferative activity was first assessed on a panel of cell lines derived from solid tumors and hematological cancers and then on a large panel of cell lines derived from mature B-cell lymphomas. […] Lymphoma cells were seeded in 96-wells tissue culture plates in complete medium and were exposed to increasing concentrations of ST7612AA1 for 48 or 72 h; the anti-proliferative activity was assessed using 3-(4,5-dimethylthiazol-2-yl)-2,5-diphenyltetrazolium bromide (MTT). The drug potency was evaluated by means of the “ALLFIT” computer program and defined as IC50 (drug concentration required for 50% inhibition of cell survival).

GCB-DLBCL SUDHL-4 = test: In vitro proliferation assay (MTT); type: cell-based; settings: Homo sapiens, SU-DHL-4, 72 h, mean ± S.E.M.
Description: as §1

GCB-DLBCL SUDHL-6 = test: In vitro proliferation assay (MTT); type: cell-based; settings: Homo sapiens, SU-DHL-6, 72 h, mean ± S.E.M.
Description: as §1

GCB-DLBCL Karpas422 = test: In vitro proliferation assay (MTT); type: cell-based; settings: Homo sapiens, KARPAS-422, 72 h, mean ± S.E.M.
Description: as §1

[2] = test system: Mantle cell lymphoma Granta-519; test: In vitro proliferation assay (MTT); type: cell-based; settings: Homo sapiens, 72 h, mean ± S.E.M.
Description: as §1

GCB-DLBCL OCI-Ly8 = test: In vitro proliferation assay (MTT); type: cell-based; settings: Homo sapiens, 72 h, mean ± S.E.M.
Description: as §1

[3] = test system: Splenic marginal zone lymphoma VL51; test: In vitro proliferation assay (MTT); type: cell-based; settings: Homo sapiens, 72 h, mean ± S.E.M.
Description: as §1

GCB-DLBCL OCI-Ly7 = test: In vitro proliferation assay (MTT); type: cell-based; settings: Homo sapiens, 72 h, mean ± S.E.M.
Description: as §1

ABC-DLBCL U2932 = test: In vitro proliferation assay (MTT); type: cell-based; settings: Homo sapiens, 72 h, mean ± S.E.M.
Description: as §1

ABC-DLBCL TMD8 = test: In vitro proliferation assay (MTT); type: cell-based; settings: Homo sapiens, 72 h, mean ± S.E.M.
Description: as §1

[4] = test system: Splenic marginal zone lymphoma SSK41; test: In vitro proliferation assay (MTT); type: cell-based; settings: Homo sapiens, 72 h, mean ± S.E.M.
Description: as §1

[5] = test system: Mantle cell lymphoma Jeko-1; test: In vitro proliferation assay (MTT); type: cell-based; settings: Homo sapiens, 72 h, mean ± S.E.M.
Description: as §1

[6] = test system: Mantle cell lymphoma REC-1; test: In vitro proliferation assay (MTT); type: cell-based; settings: Homo sapiens, Rec1, 72 h, mean ± S.E.M.
Description: as §1

[7] = test system: Splenic marginal zone lymphoma K1718; test: In vitro proliferation assay (MTT); type: cell-based; settings: Homo sapiens, 72 h, mean ± S.E.M.
Description: as §1

T-cell lymphoma HUT78 = test: In vitro proliferation assay (MTT); type: cell-based; settings: Homo sapiens, 72 h, mean ± S.E.M.
Description: as §1

[8] = test system: Mantle cell lymphoma MAVER1; test: In vitro proliferation assay (MTT); type: cell-based; settings: Homo sapiens, 72 h, mean ± S.E.M.
Description: as §1

GCB-DLBCL DOHH2 = test: In vitro proliferation assay (MTT); type: cell-based; settings: Homo sapiens, DOHH-2, 72 h, mean ± S.E.M.
Description: as §1

ABC-DLBCL OCI-Ly10 = test: In vitro proliferation assay (MTT); type: cell-based; settings: Homo sapiens, 72 h, mean ± S.E.M.
Description: as §1

Ovarian cancer SKOV-3 = test: In vitro proliferation assay (sulphorodamine B); type: cell-based; settings: Homo sapiens, SK-OV-3, 72 h, mean ± S.E.M.
[9] = test system: Acute myeloid leukemia MV4;11; test: In vitro proliferation assay (sulphorodamine B); type: cell-based; settings: Homo sapiens, 72 h, mean ± S.E.M.

**Q.** With CC(=O)SCCCCC[C@H](NC(=O)[C@H]1CCC(=O)N1)C(=O)Nc1ccccc1 [ST7612AA1] as the compound, how does the “ST7612AA1 in plasma after oral administration” value [1] read?
**A.** Its value is “not detected”.

**Q.** And the “tumor progression / tumor volumes” value (GCB-DLBCL model DOHH2)?
**A.** Its value is “decreased tumor volumes; also recorded: significant delay in tumor progression”.

**Q.** What about the “apoptosis (Annexin V positive cells)” value (lymphoma cell lines) of the same compound?
**A.** Its value is “moderate apoptosis in three out of eight lymphoma cell lines”.

**Q.** What about the IC50 (GCB-DLBCL VAL) of the same compound?
**A.** Its IC50 is 2360 nM.

**Q.** And the IC50 (GCB-DLBCL SUDHL-4)?
**A.** Its IC50 is 980 nM.

**Q.** And the IC50 (GCB-DLBCL SUDHL-6)?
**A.** Its IC50 is 630 nM.

**Q.** And the IC50 (GCB-DLBCL Karpas422)?
**A.** The IC50 was 2660 nM.

**Q.** And the IC50 [2]?
**A.** The IC50 was 470 nM.

**Q.** What about the IC50 (GCB-DLBCL OCI-Ly8) of the same compound?
**A.** The IC50 was 240 nM.

**Q.** And the IC50 [3]?
**A.** The IC50 was 120 nM.

**Q.** And the IC50 (GCB-DLBCL OCI-Ly7)?
**A.** The IC50 was 560 nM.

**Q.** And the IC50 (ABC-DLBCL U2932)?
**A.** Its IC50 is 800 nM.

**Q.** What about the IC50 (ABC-DLBCL TMD8) of the same compound?
**A.** The IC50 was 100 ± 30 nM.

**Q.** What about the IC50 [4] of the same compound?
**A.** Its IC50 is 260 nM.

**Q.** What about the IC50 [5] of the same compound?
**A.** Its IC50 is 250 ± 10 nM.

**Q.** And the IC50 [6]?
**A.** Its IC50 is 550 nM.

**Q.** What about the IC50 [7] of the same compound?
**A.** The IC50 was 100 ± 10 nM.

**Q.** What about the IC50 (T-cell lymphoma HUT78) of the same compound?
**A.** Its IC50 is 480 ± 20 nM.

**Q.** And the IC50 [8]?
**A.** The IC50 was 390 nM.

**Q.** What about the IC50 (GCB-DLBCL DOHH2) of the same compound?
**A.** Its IC50 is 46 ± 10 nM.

**Q.** What about the IC50 (ABC-DLBCL OCI-Ly10) of the same compound?
**A.** Its IC50 is 260 nM.

**Q.** And the IC50 (Ovarian cancer SKOV-3)?
**A.** The IC50 was 380 nM.

**Q.** What about the IC50 [9] of the same compound?
**A.** Its IC50 is 190 ± 20 nM.
